From patent US5854029A, “Method for preparing antihypertensive agent” (Calpis Co., Ltd., priority 1996, dated 1998)
Peptide text beside a SMILES is read from it.

Tests used:
[1] = tested on: spontaneously hypertensive rats (SHR); settings: J. Dairy Sci. 78:1253-1257; cited from earlier work
[2] = target: Angiotensin converting enzyme (ACE) (Homo sapiens, UniProt P12821); settings: J. Dairy Sci. 78:777-783; cited from earlier work
[3] = tested on: WKY rats showing normal blood pressure; assay: One-month continuous oral administration to WKY rats (safety); assay type: in vivo, rat; settings: 10 mg/kg body weight/day continuously for one month
Description: Foods fermented with Lactobacillus bacteria have been eaten by human beings for a long time, and it is therefore assumed that Tyr-Pro contained in the antihypertensive agent of the present invention has no problem in safety.

Chain of Angiotensin converting enzyme (ACE) (P12821 30-1306, species assumed): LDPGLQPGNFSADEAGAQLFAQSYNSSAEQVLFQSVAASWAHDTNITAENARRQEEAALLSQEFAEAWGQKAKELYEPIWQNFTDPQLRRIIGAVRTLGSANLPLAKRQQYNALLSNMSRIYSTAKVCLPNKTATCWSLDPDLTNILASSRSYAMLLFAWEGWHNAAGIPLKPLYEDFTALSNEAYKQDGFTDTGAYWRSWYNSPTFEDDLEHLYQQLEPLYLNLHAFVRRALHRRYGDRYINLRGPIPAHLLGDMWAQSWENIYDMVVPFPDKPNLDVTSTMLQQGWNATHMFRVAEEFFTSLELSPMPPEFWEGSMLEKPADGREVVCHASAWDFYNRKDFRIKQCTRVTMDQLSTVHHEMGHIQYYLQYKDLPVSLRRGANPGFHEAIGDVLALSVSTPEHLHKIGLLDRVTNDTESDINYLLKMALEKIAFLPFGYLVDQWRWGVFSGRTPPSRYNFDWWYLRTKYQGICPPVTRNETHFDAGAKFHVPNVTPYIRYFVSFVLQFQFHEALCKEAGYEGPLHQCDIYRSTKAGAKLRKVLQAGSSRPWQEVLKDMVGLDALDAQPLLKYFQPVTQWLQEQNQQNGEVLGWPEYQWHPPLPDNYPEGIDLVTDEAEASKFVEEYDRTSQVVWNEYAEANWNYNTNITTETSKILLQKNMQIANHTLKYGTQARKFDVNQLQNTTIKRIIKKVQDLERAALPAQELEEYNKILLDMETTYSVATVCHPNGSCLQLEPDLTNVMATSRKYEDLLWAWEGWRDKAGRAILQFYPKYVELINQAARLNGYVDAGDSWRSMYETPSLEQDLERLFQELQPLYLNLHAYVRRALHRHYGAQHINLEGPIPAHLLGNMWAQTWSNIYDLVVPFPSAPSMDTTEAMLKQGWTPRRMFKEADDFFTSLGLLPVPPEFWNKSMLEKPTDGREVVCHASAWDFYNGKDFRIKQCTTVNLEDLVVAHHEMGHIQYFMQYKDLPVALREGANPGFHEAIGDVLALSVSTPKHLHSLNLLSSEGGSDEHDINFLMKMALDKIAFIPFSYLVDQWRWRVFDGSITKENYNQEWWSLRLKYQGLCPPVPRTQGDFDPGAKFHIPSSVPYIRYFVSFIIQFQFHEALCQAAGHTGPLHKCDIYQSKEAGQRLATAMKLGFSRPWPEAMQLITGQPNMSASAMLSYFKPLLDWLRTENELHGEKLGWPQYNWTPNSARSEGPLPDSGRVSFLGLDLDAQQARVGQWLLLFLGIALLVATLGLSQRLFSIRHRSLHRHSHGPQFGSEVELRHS

For Ile-Pro-Pro, the “Antihypertensive effect in SHR (result in words)” value [1] is listed as “strong antihypertensive effect” and the “ACE inhibiting activity (result in words)” value [2] is listed as “strong ACE inhibiting activity”.
With `N[C@@H](Cc1ccc(O)cc1)C(=O)N1CCC[C@H]1C(=O)O` [Tyr-Pro] (H-Tyr-Pro-OH) the “Abnormality in behavior, appearance, blood pressure and autopsy” value [3] was “no abnormality was found”.
For Val-Pro-Pro, the “Antihypertensive effect in SHR (result in words)” value [1] is listed as “strong antihypertensive effect” and the “ACE inhibiting activity (result in words)” value [2] is listed as “strong ACE inhibiting activity”.
